{"source": "patent US20260318831A1", "about": "(University of Cincinnati, priority 2023, published 2026)", "key": {"[1]": {"experiment": "UV-visible absorption of PyQPMe in aqueous buffers pH 4.0-8.0", "type": "physicochemical", "description": "In some aspects, the fluorescence of the probe changes as the pH of an endolysosome changes, such as between a pH range of about 8.0 to about 2.0. With the designed probe PyQPMe in hand, its UV-visible absorption was screened in aqueous buffers with a pH range of 8.0 to 4.0. […] Simultaneously, a new absorption maximum at 447 nm (ε=27,264 M^−1 cm^−1) rises with its tail exceeding 600 nm in pH 4.0 buffer solution. […] In addition, the fluorescence intensities of PyQPMe used for different imaging channels of the microscope were compared, where the wavelengths of 500 nm and 645 nm represent the green and red channels, respectively. When the buffer solution is much more acidic, the fluorescence intensity ratio of I645 nm/I500 nm is higher than 1 (FIG. 2C), indicating red color dominates the fluorescence of PyQPMe. Conversely, with increasing the pH value, green fluorescence light is becoming the predominant color for imaging.\nPhosphate buffer solution. A series of standard pH buffer solutions were prepared by mixing 0.2 M Na2HPO4·7H2O, 0.2 M KH2PO4, and 0.2 M H3PO4 with varied volume ratios, and the pH values were measured by using a Mettler Toledo pH-meter.\nAbsorption and emission measurements. 3.0 mL phosphate buffer solution and 6.44 μL probe stock solution (4.66 mM) were mixed well, and an appropriate portion of the solution was transferred to a quartz cell with 1 cm optical length to collect the absorption spectra on an Agilent Cary 453 spectrophotometer. The fluorescence spectra were recorded on a HORIBA Fluorolog QM spectrofluorometer."}, "[2]": {"experiment": "Effect of potential biochemical species on fluorescence intensity", "type": "physicochemical", "conditions": "pH 3.0 or 8.2; cations, anions, H2O2, Cys, Hcy, GSH", "description": "Next, the effect of potential biochemical species on the fluorescence intensity of PyQPMe in both pH 3.0 and 8.2 buffer solutions was investigated. […] Fluorescence spectra of PyQPMe in various solvents with different polarities were also obtained. […] Furthermore, the photostability of PyQPMe was investigated under different pH conditions. […] Taken together, the above photophysical results identify that PyQPMe is a pH-sensitive probe, well suited for studying endolysosome dynamics via high-resolution imaging techniques."}, "[3]": {"system": "HeLa cells", "experiment": "Photobleaching comparison of LTR and PyQPMe", "type": "cell-based", "conditions": "100% laser power, after 40 s of scans; % of original value", "description": "FIGS. 4A-4G depict the characterization of imaging properties of PyQPMe-stained endolysosomes. FIG. 4A. Confocal image of PyQPMe-stained endolysosomes and fluorescence intensity profile (FIG. 4B) of the write line in FIG. 4A. FIG. 4C. Confocal image of PyQPMe-stained late endosomes/lysosomes and fluorescence intensity profile (FIG. 4D) of the write line in FIG. 4C. FIG. 4E. Confocal images of HeLa cells labeled with LTR and PyQPMe and 3D fluorescence intensity plots of rectangles of integration. FIG. 4F. Continuous imaging of HeLa cells labeled with LTR or PyQPMe at 100% laser intensity for photobleaching, and each scan time was 10 s, images were captured under a red channel. FIG. 4G. Normalized fluorescence intensity of LTR and PyQPMe in FIG. 4F.\nResistance to photobleaching is a crucial property of probes that determines whether they can be used for long-term fluorescence tracking. To characterize this property, a photobleaching comparison study between LTR and PyQPMe was done in HeLa cells (FIG. 4F).\nLeica Stellaris 8 Confocal imaging. High-resolution images were acquired on a commercial Leica Stellaris 8 Confocal Microscope under LIGHTNING mode. Laser powers were set at 10% intensity for 405 nm and 640 nm channels. […] High-resolution images were captured from the randomly selected field of view and analyzed with Leica LAS X and ImageJ software. […] All PCC values were analyzed in the CellProfiler."}, "[4]": {"system": "HeLa cells", "experiment": "CCK-8 cell viability and cytotoxicity assay", "type": "cell-based", "conditions": "within 24 h incubation, 0~10 μM", "method": "In some aspects, the probes of the present disclosure can be administered to living cells, either in vitro or in vivo. To take advantage of the absorption and emission spectra of PyQPMe, this probe was administered in high-resolution microscopy for living cells. The toxicity of PyQPMe was examined at first before characterizing its imaging properties. Cell Counting Kit-8 (CCK-8) was used to investigate the viability of HeLa cells stained with PyQPMe. […] Next, PyQPMe was characterized by Leica Stellaris Confocal Microscope in the LIGHTNING module for high-resolution imaging. […] The signal tended to be endolysosomes because endolysosomes have a low pH range from 4.7 to 6.3. […] Since low temperatures can inhibit endocytosis, experiments at a lower temperature were performed.\nCell viability and cytotoxicity assay. […] The viability was determined by adding 10 μL reagent from a cell counting kit-8 (CCK-8) (Dojindo Molecular Technologies, Inc.) and incubating at 37° C. for 1 h. CCK-8 solution was added to each well and the OD value for each well was read at wavelength 490 nm on a microplate reader (BioTek Instruments, Inc., USA). The interference of absorbance from PyQPMe at 490 nm was minimal compared to the CCK-8 reagent during measurement."}, "[5]": {"experiment": "n-octanol/water partition coefficient by shake-flask ultraviolet spectrophotometry", "type": "physicochemical", "conditions": "room temperature, read-out: n-octanol/water partition coefficient (Log P)", "method": "The measurements of hydrophilicity. Hydrophilicity was determined by a shake-flask ultraviolet spectrophotometry method to measure the n-octanol/water partition coefficients (Log P). First, 25 mL of n-octanol and 25 mL of water were mixed at room temperature. After 24 h, the standard solutions of the sample (10 μM) were prepared by using the preceding saturated n-octanol phase and water phase solution, respectively. Later, the test solutions were prepared by mixing 10 ml of standard solution in n-octanol and 10 ml of standard solution in water. After shaking, the mixture of test solution was centrifuged for 5 min. The n-octanol phase layer was separated from the water phase layer and the absorbance of the two layers was measured by Agilent Cary 8453 spectrophotometer. Based on the Beer-Lambert law, the concentrations of the sample in the n-octanol phase (Co) and the water phase (Cw) were calculated. Finally, the n-octanol/water partition coefficients (Log P) were further calculated by using the following equation: […]"}}}
{"compound": "CN1CCN(c2ccc(/C=C/c3ccc4cc(-c5ccncc5)ccc4[n+]3C)cc2)CC1", "note": "[PyQPMe, (E)-1-methyl-2-(4-(4-methylpiperazin-1-yl)styryl)-6-(pyridin-4-yl)quinolin-1-ium]", "values": [{"measurement": "pKa", "setting": "[1]; aqueous buffers, from absorption at 394 and 447 nm, pH 8.0 to 4.0, read-out: apparent pKa value", "value": "~5"}, {"measurement": "absorption maximum", "setting": "[1]; neutral condition", "value": 394, "unit": "nm"}, {"measurement": "ε at absorption maximum 394 nm", "setting": "[1]; neutral condition", "value": "34,147 M^−1cm^−1"}, {"measurement": "new absorption maximum", "setting": "[1]; pH 4.0 buffer solution", "value": 447, "unit": "nm"}, {"measurement": "ε at absorption maximum 447 nm", "setting": "[1]; pH 4.0 buffer solution", "value": "27,264 M^−1 cm^−1"}, {"measurement": "effect of interfering substances on emission intensity", "setting": "[2]", "value": "none of these interfering substances could quench the emission intensity"}, {"measurement": "fluorescence signal remaining after photobleaching", "setting": "[3]", "value": 22, "unit": "%"}, {"measurement": "effect on viability of HeLa cells", "setting": "[4]", "value": "no effects on the viability of HeLa cells"}, {"measurement": "logP at 10 µM", "setting": "[5]", "value": "~-0.65"}]}
